# Measurements taken from US20230040415A1 (PureTech LYT 100, Inc., priority 2020, published 2023).
# Like-named read-outs stand apart in the source and are kept apart here.
# What was measured:
# [1] = Multiple ascending dose (MAD) study Part 1, plasma pharmacokinetics
# [2] = Repeat dose oral toxicity and toxicokinetics study in Sprague Dawley rats; settings: for dose proportionality of AUC0-24 / dose proportionality of Cmax: SD-560 250 to 750 mg/kg, Groups 2 to 4; for exposure in rat relative to human: male rat after 28 days of daily dosing vs human
# [3] = Single-dose crossover clinical trial, 801 mg LYT-100 vs pirfenidone, plasma pharmacokinetics; settings: for Cmax / % AUC extrap / AUC0-t / AUC(inf) / Kel / t1/2 / tmax: fed, analyte = label; for Cmax / % AUC extrap / AUC0-t / AUC(inf) / Kel / t1/2: mean; for Cmax: n = 24; for tmax: median
# [4] = Food effect study Part 2, single 500 mg dose fed vs fasted; assay type: in vivo, human
# Procedure: The comparison will be based on Day 1, Day 2 and Day 3 PK plasma samples after the first dose of study drug on Day 1 under fast and fed conditions of Part 2.
# Subjects will be admitted to the CRU on Day −1 and will fast overnight for at least 10 h.
# [5] = parameters: AUC, Fasted / AUC, Fed: unit not given beside the values; settings: cited from earlier work; for share of recovered drug material in urine excreted as label: humans, oral pirfenidone
# [6] = cited from earlier work
# [7] = FIG. 23 (Cohort 6, 1000 mg BID)
# [8] = LYT-100 100, 250, 500, 750 mg BID cohorts (FIG. 19)
# [9] = Day 1, Female, label = Group 4 analyte vs its non-deuterated counterpart
# [10] = Treatment = LYT-100, single 801 mg oral dose
# [11] = Treatment = LYT-100, single 801 mg
# [12] = Treatment = Pirfenidone, single 801 mg oral dose
# [13] = Treatment = Pirfenidone, single 801 mg
# [14] = LYT-100 @500 mg single dose, analyte = label
# [15] = LYT-100 @500 mg, 5-CO2 metabolite
Structure (SMILES),"average ratio of metabolite to the parent (M/P) by AUC [1, 7]","average ratio of metabolite to the parent (M/P) by AUC [1, 8]","Cmax [3, 10] [ng/mL]","% AUC extrap [3, 11] [%]","AUC0-t [3, 11] [ng·h/mL]","AUC(inf) [3, 11] [ng·h/mL]","Kel [3, 11] [h⁻¹]","t1/2 [3, 11] [h]","tmax [3, 11] [h]","Cmax [3, 12] [ng/mL]","% AUC extrap [3, 13] [%]","AUC0-t [3, 13] [ng·h/mL]","AUC(inf) [3, 13] [ng·h/mL]","AUC ratio Group 4 (LYT-100 at 750 mg/kg) / Group 5 (SD-559 at 750 mg/kg) [2, 9]","AUC ratio Group 4 (LYT-100 at 750 mg/kg) / Group 5 (SD-559 at 750 mg/kg) ([2]; Day 1, Male)","AUC ratio Group 4 (LYT-100 at 750 mg/kg) / Group 5 (SD-559 at 750 mg/kg) ([2]; Day 28, Female)",dose proportionality of AUC0-24 [2],dose proportionality of Cmax [2],"AUC ratio Group 4 (LYT-100 at 750 mg/kg) / Group 5 (SD-559 at 750 mg/kg) ([2]; Day 28, Male)",exposure in rat relative to human [2] [fold],other results
"O=C(O)c1ccc(=O)n(-c2ccccc2)c1 [LYT-105, 5-carboxy-pirfenidone]",0.56 (0.44-0.66),0.45,3970,1.13,23090,23350,0.262,2.91,2.50,5241,0.843,26932,27159,0.49,0.45,0.71,dose proportional,approximately dose proportional,0.57,~7,"average ratio of metabolite to the parent (M/P) by AUC ([1]; LYT-100 100, 250, 500, 750 mg BID cohorts (FIG. 19), listed as SD-789): 0.45 (0.37-0.50); dose dependence of AUC96-108 ([1]; across all dose Cohorts, 100-1000 mg BID): linear dose proportionality; lower Cmax and exposure than SD-789 formed from SD-559 ([2]; SD-560 750 mg/kg vs SD-559 750 mg/kg): approximately 50%; Kel [3, 13]: 0.288 h⁻¹; t1/2 [3, 13]: 2.55 h; tmax [3, 13]: 3.00 h; Cmax reduction of 5-carboxy-pirfenidone after LYT-100 relative to pirfenidone ([3]; single 801 mg dose each): 25%; AUC, % Change Fed vs Fasted [4, 14]: < 5%; Cmax, % Change Fed vs Fasted [4, 14]: < 5%; Tmax, Fasted [4, 15]: 0.75 h; Tmax, Fed [4, 15]: 1 h; plasma exposure relative to exposure to pirfenidone ([5]; Huang, 2013): approximately 50%; share of recovered drug material in urine excreted as label [5]: > 95%"
"O=c1ccc(CO)cn1-c1ccccc1 [LYT-111, 5-hydroxymethyl-pirfenidone]",–,–,–,–,–,–,–,–,–,17.1,10.3,75.8,89.7,–,–,–,–,–,–,–,"Kel [3, 13]: 0.367 h⁻¹; t1/2 [3, 13]: 2.04 h; tmax [3, 13]: 2.50 h; overall systemic exposure (AUC) of metabolite greater after LYT-100 than after pirfenidone ([3]; single 801 mg dose each): approximately 50%"
"Cc1ccc(=O)n(-c2ccccc2)c1 [Pirfenidone, 5-methyl-1-phenyl-1H-pyridin-2-one]",–,–,–,–,–,–,–,–,–,–,–,–,–,–,–,–,–,–,–,–,"diarrhea, frequency ([6]; Lancaster et al. 2017, IPF): ≤ 27.6 per 100PEY; fatigue, frequency ([6]; Lancaster et al. 2017, IPF): ≤ 52.4 per 100PEY; nausea, frequency ([6]; Lancaster et al. 2017, IPF): ≤ 62.1 per 100 PEY; adverse drug reactions leading to permanent treatment discontinuation ([6]; PASSPORT study, Cottin et al. 2018): 28.7%; patients with an adverse event ([6]; compassionate use program, Raghu & Thickett 2013): 44%; patients with ADR leading to discontinuation ([6]; patients aged <65 years): 7.5%; patients with ADR leading to dose modification/interruption ([6]; patients aged <65 years): 18.0%; patients with ADR leading to discontinuation ([6]; patients aged ≥80 years): 20.9%; patients with ADR leading to dose modification/interruption ([6]; patients aged ≥80 years): 32.7%; elevations of AST and ALT to >3× ULN ([6]; phase III trials): 3.2%; reported AEs that were GI-related ([6]; single-center retrospective study of 351 patients): 75%; AUC, Fasted ([5]; Pirfenidone @800 mg): 69.7; AUC, Fed ([5]; Pirfenidone @800 mg): 59.3; Tmax, % Change Fed vs Fasted ([5]; Pirfenidone @800 mg): 500%; Tmax, Fasted ([5]; Pirfenidone @800 mg): 0.5 h; share of recovered drug material in urine excreted as label [5]: less than 1%"

# Further lines, with some results ahead:
"average ratio of metabolite to the parent (M/P) by AUC [1, 7]","average ratio of metabolite to the parent (M/P) by AUC [1, 8]","Cmax [3, 10] [ng/mL]","% AUC extrap [3, 11] [%]","AUC0-t [3, 11] [ng·h/mL]","AUC(inf) [3, 11] [ng·h/mL]","Kel [3, 11] [h⁻¹]","t1/2 [3, 11] [h]","tmax [3, 11] [h]","Cmax [3, 12] [ng/mL]","% AUC extrap [3, 13] [%]","AUC0-t [3, 13] [ng·h/mL]","AUC(inf) [3, 13] [ng·h/mL]",Structure (SMILES),"AUC ratio Group 4 (LYT-100 at 750 mg/kg) / Group 5 (SD-559 at 750 mg/kg) [2, 9]","AUC ratio Group 4 (LYT-100 at 750 mg/kg) / Group 5 (SD-559 at 750 mg/kg) ([2]; Day 1, Male)","AUC ratio Group 4 (LYT-100 at 750 mg/kg) / Group 5 (SD-559 at 750 mg/kg) ([2]; Day 28, Female)",dose proportionality of AUC0-24 [2],dose proportionality of Cmax [2],"AUC ratio Group 4 (LYT-100 at 750 mg/kg) / Group 5 (SD-559 at 750 mg/kg) ([2]; Day 28, Male)",exposure in rat relative to human [2] [fold],other results
0.0037 (0.0030-0.0058),0.0017 (0.0012-0.0022),–,–,–,–,–,–,–,–,–,–,–,"[2H]C([2H])([2H])c1ccc(=O)n(-c2ccc(O)cc2)c1 [LYT-103, d3-4′-hydroxy-pirfenidone]",21.77,34.51,38.04,dose proportionally,less than dose proportional,–,–,quantifiability of metabolite in human ([3]; after LYT-100): not quantifiable
0.0028 (0.0018-0.0038),0.0025 (0.0020-0.0029),20.6,10.1,111,124,0.294,2.76,2.50,–,–,–,–,"[2H]C([2H])(O)c1ccc(=O)n(-c2ccccc2)c1 [LYT-110, 5-(hydroxymethyl-d2)-pirfenidone]",2.50,2.22,2.59,dose proportional,dose proportional,2.54,~1600,"exposure and Cmax vs non-deuterated metabolite SD-788 from SD-559 ([2]; 750 mg/kg, all days, both genders): almost twice"
